The test system of assay [1] is Ramos RA1 B cells. Description: Ramos FLIPR Assay. It counts as cell-based. Conditions: goat anti-human IgM 2.5 μg/mL, peak intracellular calcium, read-out: IC50 for Inhibition of Ramos FLIPR assay.
Assay [2] deals with T1, human recombinant Btk (Homo sapiens, UniProt Q06187).
T1 construct: purchased Invitrogen Corporation
Description: Human Recombinant Btk Enzyme Assay. It counts as biochemical. Conditions: human recombinant Btk 1 nM, ATP 20 μM, 60 min at room temperature; read-out: IC50 for Inhibition of Btk.

Assay [3] has as its system anti-KLH IgG response in BALB/c mice. The experiment in a line: KLH Antigen Challenge and Antibody Measurement. In kind it is in vivo, mouse. As to conditions: female BALB/c mice, serum 14 days post-immunization. How it is done:
KLH Antigen Challenge and Antibody Measurement
Female BALB/c mice (6-8 weeks old) were immunized intraperitoneally (IP) with 250 μg keyhole limit hemocyanin (KLH) (Pierce, Rockford, Ill.) in phosphate-buffered saline (PBS). Mice in appropriate groups were dosed as indicated. Blood was collected 14 days post-immunization, serum was separated and analyzed for anti-KLH IgG titers by ELISA. Briefly, 96 well plates were coated with KLH in PBS, blocked, and serial dilutions of test serum samples were added.

T1 sequence (Q06187 whole entry): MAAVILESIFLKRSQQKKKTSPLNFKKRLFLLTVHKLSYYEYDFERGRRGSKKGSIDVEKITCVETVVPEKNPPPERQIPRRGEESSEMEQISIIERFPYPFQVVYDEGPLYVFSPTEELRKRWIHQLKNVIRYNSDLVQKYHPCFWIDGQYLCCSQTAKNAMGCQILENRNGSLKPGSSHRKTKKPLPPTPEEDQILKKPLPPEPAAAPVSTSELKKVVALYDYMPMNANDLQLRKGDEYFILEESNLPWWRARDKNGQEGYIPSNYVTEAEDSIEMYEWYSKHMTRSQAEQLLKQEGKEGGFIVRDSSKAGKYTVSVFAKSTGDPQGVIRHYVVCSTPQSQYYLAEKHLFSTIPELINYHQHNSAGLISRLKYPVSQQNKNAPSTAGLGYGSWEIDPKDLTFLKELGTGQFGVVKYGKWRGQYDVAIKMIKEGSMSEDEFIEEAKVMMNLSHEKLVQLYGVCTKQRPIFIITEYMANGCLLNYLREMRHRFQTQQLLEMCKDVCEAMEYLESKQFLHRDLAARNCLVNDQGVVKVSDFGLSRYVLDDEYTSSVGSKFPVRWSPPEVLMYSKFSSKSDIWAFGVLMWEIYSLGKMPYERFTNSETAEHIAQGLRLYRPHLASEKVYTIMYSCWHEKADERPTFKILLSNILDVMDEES

Broadly, the IC50 is the concentration that gives 50% inhibition. In the case of `Cc1c(-c2ccc(C(N)=O)c3[nH]c4cc(C(O)CO)ccc4c23)cccc1-n1cnc2ccc(Cl)cc2c1=O` (centres unmarked) [Example 70-14], the half-inhibitory concentration (IC50) stood at 14 nM in assay [1] and 0.9 nM in assay [2]. Turning to `Cc1c(Nc2ncnc3c(F)cccc23)cccc1-c1ccc(C(N)=O)c2[nH]c3cc(C(C)(C)O)ccc3c12` [Example 81-1, 4-(3-(8-fluoroquinazolin-4-ylamino)-2-methylphenyl)-7-(2-hydroxypropan-2-yl)-9H-carbazole-1-carboxamide], in assay [1], the half-maximal inhibitory concentration (IC50) is 15 nM. `Cc1c(-c2ccc(C(N)=O)c3[nH]c4cc(C(C)(C)O)ccc4c23)cccc1N1Cc2ccc(F)cc2C1=O` [Example 76-15]: the results for the “inhibited the anti-KLH IgG response” value in assay [3] (10 mg/kg twice daily) and in assay [3] (30 mg/kg twice daily) were 29% and 56%, respectively. Also, the figures for the IC50 in assay [1] and in assay [2] were 48 nM and 2.4 nM, respectively.

Take `Cc1c(-c2ccc(C(N)=O)c3[nH]c4cc(NC(=O)C5CC5)ccc4c23)cccc1N1Cc2ccccc2C1=O` [Example 66-39]: the IC50 in assay [1] was 260 nM. Take `Cc1c(-c2ccc(C(N)=O)c3[nH]c4cc(C(O)CO)ccc4c23)cccc1-n1cnc2ccc(F)cc2c1=O` (centres unmarked) [Example 70-13]: the values for the IC50 in assay [1] and in assay [2] were 11 nM and 0.7 nM, respectively. Take `Cc1ccc(NC(=O)Nc2cccc(-c3ccc(C(N)=O)c4[nH]c5cc(C(=O)N6CCN(C)CC6)ccc5c34)c2C)cc1C` [Example 8-1, 4-(3-(3-(3,4-dimethylphenyl)ureido)-2-methylphenyl)-7-(4-methylpiperazine-1-carbonyl)-9H-carbazole-1-carboxamide]: in assay [1], the half-maximal inhibitory concentration (IC50) came to 5400 nM. Same read-out and setting: next, `Cc1c(/N=C2\OCc3ccncc32)cccc1-c1ccc(C(N)=O)c2[nH]c3c(c12)CCC(C(C)(C)O)C3` (centres unmarked) [Example 76-7]: 240 nM. For `COc1ccc2c(c1)CN(c1cccc(-c3ccc(C(N)=O)c4[nH]c5cc(C(C)(C)O)ccc5c34)c1C)C2=O` [Example 76-32, 7-(2-hydroxypropan-2-yl)-4-(3-(5-methoxy-1-oxoisoindolin-2-yl)-2-methylphenyl)-9H-carbazole-1-carboxamide], the values for the IC50 in assay [1] and in assay [2] were 38 nM and 3.2 nM, respectively. For `COC1=CC(=O)N(c2cccc(-c3ccc(C(N)=O)c4[nH]c5cc(C(C)(C)O)ccc5c34)c2C)C1` [Example 82-1, 7-(2-hydroxypropan-2-yl)-4-(3-(4-methoxy-2-oxo-2,5-dihydro-1H-pyrrol-1-yl)-2-methylphenyl)-9H-carbazole-1-carboxamide], the half-inhibitory concentration (IC50) was determined as 17 nM in assay [1] and 1.9 nM in assay [2]. Take `Cc1c(-c2ccc(C(N)=O)c3[nH]c4cc(N5CCOC5=O)ccc4c23)cccc1N1Cc2ccccc2C1=O` [Example 66-10]: in assay [1], the IC50 is 270 nM. For the compound `Cc1c(-c2ccc(C(N)=O)c3[nH]c4cc(C(C)(C)O)ccc4c23)cccc1-n1cnc2c(F)cccc2c1=O` [Example 76-51], the IC50 came to 17 nM in assay [1] and 1.4 nM in assay [2].

Turning to `COC(CO)c1ccc2c(c1)[nH]c1c(C(N)=O)ccc(-c3cccc(N4Cc5ccc(C)cc5C4=O)c3C)c12` (racemic) [Example 75-3], the concentration for half-maximal inhibition (IC50) in assay [1] amounted to 16 nM; in assay [2], 1.1 nM. `Cc1c(-c2ccc(C(N)=O)c3[nH]c4cc(N5CCCC5=O)ccc4c23)cccc1N1Cc2ccccc2C1=O` [Example 62-1, 4-(2-methyl-3-(1-oxoisoindolin-2-yl)phenyl)-7-(2-oxopyrrolidin-1-yl)-9H-carbazole-1-carboxamide]: the concentration for half-maximal inhibition (IC50) in assay [1] was 250 nM.

On to `CC(=O)NCc1ccc2c(c1)[nH]c1c(C(N)=O)ccc(-c3cccc(-n4cnc5ccc(F)cc5c4=O)c3C)c12` [Example 38-3, 7-(acetamidomethyl)-4-(3-(6-fluoro-4-oxoquinazolin-3(4H)-yl)-2-methylphenyl)-9H-carbazole-1-carboxamide], for which the half-inhibitory concentration (IC50) is 23 nM in assay [1] and 1.4 nM in assay [2]. Consider `Cc1c(Nc2ncnc3cc(Cl)ccc23)cccc1-c1ccc(C(N)=O)c2[nH]c3cc(C(=O)N4CCN(C)CC4)ccc3c12` [Example 11-6, 4-(3-(7-chloroquinazolin-4-ylamino)-2-methylphenyl)-7-(4-methylpiperazine-1-carbonyl)-9H-carbazole-1-carboxamide], for which the IC50 in assay [1] came to 280 nM. Still for that read-out and setting: with `Cc1cn2ccn(-c3cccc(-c4ccc(C(N)=O)c5[nH]c6cc(NC(C)C)ccc6c45)c3C)c(=O)c2n1` [Example 80-2] the figure was 16 nM.
